Columns and labels:
[1] = target: T1, E. coli dipeptide binding protein (DPP), fluorophore-conjugated cysteine mutants (Escherichia coli, UniProt P23847); assay: Ligand affinity of dipeptide BP fluorescent conjugates (Kd range); conditions: range over conjugates, n=21
T1 construct: several single-Cys mutants (e.g. K394C) with fluorophore
Text: Molecular Cloning. […] Amplified products were cloned into one of the protein expression vectors pAED4 (Doering, “Functional and structural studies of a small f-actin binding domain” in Ph.D. thesis, Massachusetts Institute of Technology, 1992); pKK223-3 (Brosius & Holy, Proc. Natl. Acad. Sci. USA 81:6929-6933, 1984); or pET vectors (Studier et al., Meth. Enzymol. 185:60-89, 1990) (Novagen). N-terminal oligonucleotide primers were designed to clone only the processed periplasmic form, deleting the signal sequence. The C-terminal primer was designed to append the sequence Gly-Ser-Gly-(His)n or Gly-Ser-(His)n, where n=5, 6, or 10. Two tandem stop codons (TAATGA) follow the last His codon. […] Additionally the sequence of Fe(III) BP was mutated by substitution of Glu57 with Asp to raise the Kd to a concentration range conveniently measured using Fe(III) citrate.
Fluorophore conjugation to cysteine-substituted bPBPs. […] The efficiency of reporter group attachment was assessed by determination of unreacted thiol with Ellman's reagent (Ellman, Arch. Biochem. Biophys. 74:443-450, 1958) or by measuring the ratio of fluorophore to protein from absorbance spectra of the purified conjugate.
Fluorimetry. […] Fluorescence emission spectra were acquired with excitation and emission slit widths of 4 and 8 nm, respectively. […]

[2] = target: T2, E. coli dipeptide binding protein variant D450C, fluorophore conjugate (Escherichia coli, UniProt P23847, D478C); assay: Fluorimetric titration of fluorophore conjugates; conditions: peristeric site
T2 construct: initiator methionine (N); Gly-Ser-Gly-(His)n or Gly-Ser-(His)n (n = 5, 6 or 10) (C); made in house; host or cells: E. coli BL21-DE3
T2 sequence (P23847 29-535 D478C): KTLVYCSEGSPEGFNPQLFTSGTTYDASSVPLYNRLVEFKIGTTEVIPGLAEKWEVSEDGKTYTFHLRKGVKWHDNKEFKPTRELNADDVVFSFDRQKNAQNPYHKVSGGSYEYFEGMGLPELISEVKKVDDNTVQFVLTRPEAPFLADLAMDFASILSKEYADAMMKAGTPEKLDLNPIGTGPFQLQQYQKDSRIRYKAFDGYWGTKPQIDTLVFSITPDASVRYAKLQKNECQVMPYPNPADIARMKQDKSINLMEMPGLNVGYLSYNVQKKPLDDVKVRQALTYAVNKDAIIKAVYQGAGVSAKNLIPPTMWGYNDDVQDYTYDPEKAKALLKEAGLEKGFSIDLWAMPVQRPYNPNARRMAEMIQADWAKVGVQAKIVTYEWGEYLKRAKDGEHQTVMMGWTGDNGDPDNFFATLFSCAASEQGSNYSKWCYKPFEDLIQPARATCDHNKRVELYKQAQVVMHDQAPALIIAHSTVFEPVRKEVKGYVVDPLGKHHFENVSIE
Text: (§1) Molecular Cloning. […] Amplified products were cloned into one of the protein expression vectors pAED4 (Doering, “Functional and structural studies of a small f-actin binding domain” in Ph.D. thesis, Massachusetts Institute of Technology, 1992); pKK223-3 (Brosius & Holy, Proc. Natl. Acad. Sci. USA 81:6929-6933, 1984); or pET vectors (Studier et al., Meth. Enzymol. 185:60-89, 1990) (Novagen). N-terminal oligonucleotide primers were designed to clone only the processed periplasmic form, deleting the signal sequence. The C-terminal primer was designed to append the sequence Gly-Ser-Gly-(His)n or Gly-Ser-(His)n, where n=5, 6, or 10. Two tandem stop codons (TAATGA) follow the last His codon. […] Single amino acid substitutions were generated by overlapping PCR mutagenesis (Ho et al., Gene 77:51-59, 1989). All clones and mutations were confirmed by nucleotide sequencing. In the case of arabinose BP, the single cysteine in the wild type sequence was replaced by alanine to eliminate the possibility of reporter group conjugation to this thiol (Miller et al., J. Biol. Chem. 254:7521-7528, 1979). Additionally the sequence of Fe(III) BP was mutated by substitution of Glu57 with Asp to raise the Kd to a concentration range conveniently measured using Fe(III) citrate.
(§2) Fluorophore conjugation to cysteine-substituted bPBPs. Thiol-reactive fluorophores obtained from Molecular Probes (Eugene, Oreg.) were 5-iodoacetamidofluorescein (fluorescein); N-(1-pyrene) iodoacetamide (pyrene); N,N′-dimethyl-N-(iodoacetyl)-N′-(7-nitrobenz-2-oxa-1,3-diazol-4-yl)ethylenediamide (NBD); N-((2-(iodoacetoxy)ethyl)-N-methyl)amino-7-nitrobenz-2-oxa-1,3-diazole (NBDE); and 6-acryloyl-2-dimethylaminonaphthalene (acrylodan). The styryl and naphthyl dyes JPW4039, JPW4042, and JPW4045 (FIG. 3) were synthesized at the University of Connecticut. All fluorophore conjugation steps were typically carried out at room temperature. To protein at a concentration of 100 μM was added tris-(2-carboxyethyl)phosphine HCl to a five-fold molar excess to reduce intermolecular disulfide bonds. A thiol-reactive fluorophore (20 to 25 mM in acetonitrile or dimethyl sulfoxide) was added in small aliquots to a five-fold molar excess over protein. Conjugation proceeded in the dark at room temperature for 4 hours, or overnight at 4° C. Separation of protein from unreacted fluorophore was achieved by exhaustive dialysis or by size-exclusion chromatography. The efficiency of reporter group attachment was assessed by determination of unreacted thiol with Ellman's reagent (Ellman, Arch. Biochem. Biophys. 74:443-450, 1958) or by measuring the ratio of fluorophore to protein from absorbance spectra of the purified conjugate.
(§3) Fluorimetry. All measurements were conducted with an SLM Aminco-Bowman series 2 fluorimeter, with sample stirring at 25° C. Fluorescence emission spectra were acquired with excitation and emission slit widths of 4 and 8 nm, respectively. Photomultiplier tube potential was maintained between 400 and 800 volts. Protein concentrations were in the range of 50 to 1000 nM. Fluorophore-specific excitation was at the following approximate wavelengths: tryptophan, 290 nm; acrylodan, 390 nm; fluorescein, 485 nm; pyrene, 340 nm; NBD and NBDE, 490 nm; JPW4039, 485 nm; JPW4042, 470 nm; JPW4045, 470 nm.
(§4) Corrections were made for dilution of the protein and for background signal from buffer. Binding curves were fit to binding isotherms using equation 3 or 4, as appropriate.
(§5) Analyte affinity measurements. […] The emission wavelength monitored was that of maximum difference in intensity between the ligand-free and bound states. For each conjugate, fluorescence intensiometric observations were fit to a hyperbolic binding isotherm for a two-state model (Marvin et al., Proc. Natl. Acad. Sci. USA 94:4366-4371, 1997): […]

[3] = target: T3, E. coli dipeptide binding protein variant K394C, fluorophore conjugate (Escherichia coli, UniProt P23847, K422C); assay: Fluorimetric titration of fluorophore conjugates
T3 construct: initiator methionine (N); Gly-Ser-Gly-(His)n or Gly-Ser-(His)n (n = 5, 6 or 10) (C); made in house; host or cells: E. coli BL21-DE3
T3 sequence (P23847 29-535 K422C): as the sequence (P23847 29-535 D478C) above, with K394C, C450D counted along it
Text: as §1, §2, §3, §4, §5

[4] = target: T4, E. coli dipeptide binding protein variant R141C, fluorophore conjugate (Escherichia coli, UniProt P23847, R169C); assay: Fluorimetric titration of fluorophore conjugates; conditions: peristeric site
T4 construct: initiator methionine (N); Gly-Ser-Gly-(His)n or Gly-Ser-(His)n (n = 5, 6 or 10) (C); made in house; host or cells: E. coli BL21-DE3
T4 sequence (P23847 29-535 R169C): as the sequence (P23847 29-535 D478C) above, with R141C, C450D counted along it
Text: as §1, §2, §3, §4, §5

[5] = target: T5, E. coli dipeptide binding protein variant S111C, fluorophore conjugate (Escherichia coli, UniProt P23847, S139C); assay: Fluorimetric titration of fluorophore conjugates; conditions: peristeric site
T5 construct: initiator methionine (N); Gly-Ser-Gly-(His)n or Gly-Ser-(His)n (n = 5, 6 or 10) (C); made in house; host or cells: E. coli BL21-DE3
T5 sequence (P23847 29-535 S139C): as the sequence (P23847 29-535 D478C) above, with S111C, C450D counted along it
Text: as §1, §2, §3, §4, §5

[6] = target: T6, E. coli dipeptide binding protein variant T44C, fluorophore conjugate (Escherichia coli, UniProt P23847, T72C); assay: Fluorimetric titration of fluorophore conjugates; conditions: peristeric site
T6 construct: initiation methionine (N); Gly-Ser-Gly-(His)n or Gly-Ser-(His)n (C); made in house; host or cells: E. coli BL21-DE3
T6 sequence (P23847 29-535 T72C): as the sequence (P23847 29-535 D478C) above, with T44C, C450D counted along it
Text: as §1, §2, §3, §4, §5

[7] = target: T7, E. coli dipeptide binding protein variant W315C, fluorophore conjugate (Escherichia coli, UniProt P23847, W343C); assay: Fluorimetric titration of fluorophore conjugates; conditions: peristeric site
T7 construct: initiation methionine (N); Gly-Ser-Gly-(His)n or Gly-Ser-(His)n (C); made in house; host or cells: E. coli BL21-DE3
T7 sequence (P23847 29-535 W343C): as the sequence (P23847 29-535 D478C) above, with W315C, C450D counted along it
Text: as §1, §2, §3, §4, §5

T1 sequence (P23847 29-535, stated change not applied): as the sequence (P23847 29-535 D478C) above, with C450D counted along it

Compound: CC(C)C[C@H](NC(=O)CN)C(=O)O [Gly-Leu, Gly-Leu dipeptide]
- range of Kd [1]: 0.006 to 93 µM
- Kd ([2]; Acrylodan conjugate): 11 µM
- Kd ([2]; JPW4039 conjugate): 0.91 µM
- Kd ([2]; JPW4042 conjugate): 1.5 µM
- Kd ([2]; JPW4045 conjugate): 2 µM
- Kd ([3]; Kd, Acrylodan conjugate, peristeric site): 23 µM
- Kd ([3]; Kd, Fluorescein conjugate, peristeric site): 93 µM
- Kd ([3]; Kd, JPW4039 conjugate, peristeric site): 30 µM
- Kd ([3]; Kd, JPW4042 conjugate, peristeric site): 78 µM
- Kd ([3]; Kd, NBD conjugate, peristeric site): 0.012 µM
- Kd ([3]; affinity for Gly-Leu dipeptide (Kd), K394C-NBD conjugate): 0.006 µM
- Kd ([3]; affinity for Gly-Leu dipeptide (Kd), K394C-fluorescein conjugate): 93 µM
- Kd ([4]; Acrylodan conjugate): 2.3 µM
- Kd ([4]; Fluorescein conjugate): 38 µM
- Kd ([5]; Acrylodan conjugate): 4.8 µM
- Kd ([5]; Fluorescein conjugate): 2.6 µM
- Kd ([5]; JPW4039 conjugate): 34 µM
- Kd ([5]; JPW4042 conjugate): 15.8 µM
- Kd ([6]; Fluorescein conjugate): 0.64 µM
- Kd ([6]; NBD conjugate): 0.006 µM
- Kd ([7]; Acrylodan conjugate): 0.13 µM
- Kd ([7]; JPW4039 conjugate): 1 µM
- Kd ([7]; JPW4045 conjugate): 3.2 µM
- Kd ([7]; NBD conjugate): 0.06 µM
